In patent US6403626B1, “Benzimidazole derivatives” (Synaptic Pharmaceutical Corporation, priority 1994, dated 2002):
Counter-ions that a name gives are not always drawn.

Row | Structure (SMILES) | melting point
1 | CC(C)n1cnc2cc(NC3=NCCN3)ccc21 (as salt: fumarate) [Example 17, 1-Isopropyl-5-(2-imidazolin-2-ylamino)Benzimidazole] | 185 to 186 °C
2 | Brc1c(NC2=NCCN2)ccc2c1ncn2C1CCCC1 (as salt: fumarate) [Example 26, 1-Cyclopentyl-4-bromo-5-(2-imidazolin-2-ylamino)Benzimidazole] | 180 to 182 °C
3 | CC(C)(C)c1nc2ccc(NC3=NCCN3)c(Br)c2[nH]1 (as salt: fumarate) [Example 45, 2-tert-Butyl-4-bromo-5-(2-imidazolin-2-ylamino)Benzimidazole] | 176 to 178 °C
4 | Cc1nc2ccc(NC3=NCCN3)c(Br)c2[nH]1 (as salt: fumarate) [Example 42, 2-Methyl-4-bromo-5-(2-imidazolin-2-ylamino)Benzimidazole] | 222 to 224 °C
5 | Brc1c(NC2=NCCN2)ccc2ncn(C3CCCC3)c12 (as salt: fumarate) [Example 28, 3-Cyclopentyl-4-bromo-5-(2-imidazolin-2-ylamino)Benzimidazole] | 208 to 210 °C
6 | c1ccc(Cn2cnc3ccc(NC4=NCCN4)cc32)cc1 (as salt: fumarate) [Example 34, 3-Benzyl-5-(2-imidazolin-2-ylamino)Benzimidazole] | 174 to 175 °C
7 | c1cc2ncn(C3CCCC3)c2cc1NC1=NCCN1 (as salt: fumarate) [Example 27, 3-Cyclopentyl-5-(2-imidazolin-2-ylamino)Benzimidazole] | 158 to 159 °C
8 | Brc1c(NC2=NCCN2)ccc2nc(C(c3ccccc3)c3ccccc3)[nH]c12 (as salt: fumarate) [Example 48, 2-Diphenylmethyl-4-bromo-5-(2-imidazolin-2-ylamino)Benzimidazole] | 240 to 242 °C
9 | CCCn1cnc2ccc(NC3=NCCN3)cc21 (as salt: fumarate) [Example 15, 3-Propyl-5-(2-imidazolin-2-ylamino)Benzimidazole] | 198 to 199 °C
10 | CC(C)n1cnc2ccc(NC3=NCCN3)c(Br)c21 (as salt: fumarate) [Example 21, 3-Isopropyl-4-bromo-5-(2-imidazolin-2-ylamino)Benzimidazole] | 210 to 212 °C
11 | CCc1nc2ccc(NC3=NCCN3)c(Br)c2[nH]1 (as salt: fumarate) [Example 43, 2-Ethyl-4-bromo-5-(2-imidazolin-2-ylamino)Benzimidazole] | 186 to 187 °C
12 | CCCCc1cc(NC2=NCCN2)cc2[nH]cnc12 (as salt: fumarate) [Example 56, 7-Butyl-5-(2-imidazolin-2-ylamino)Benzimidazole] | 115 to 117 °C
13 | Cn1cnc2ccc(NC3=NCCN3)cc21 (as salt: fumarate) [Example 11, 3-Methyl-5-(2-imidazolin-2-ylamino)Benzimidazole] | 202 to 204 °C
14 | Clc1cc(NC2=NCCN2)c(Br)c2[nH]cnc12 (as salt: fumarate) [Example 60, 4-Bromo-7-chloro-5-(2-imidazolin-2-ylamino)Benzimidazole] | 244 to 246 °C
15 | CC(C)n1cnc2c(I)c(NC3=NCCN3)ccc21 (as salt: fumarate) [Example 19, 1-lsopropyl-4-Iodo-5-(2-imidazolin-2-ylamino)Benzimidazole] | 208 to 209 °C
16 | c1cc2c(cc1NC1=NCCN1)ncn2C1CCCC1 (as salt: fumarate) [Example 25, 1-Cyclopentyl-5-(2-imidazolin-2-ylamino)Benzimidazole] | 214 to 215 °C
17 | Brc1c(NC2=NCCN2)ccc2ncn(CC3CCCCC3)c12 (as salt: fumarate) [Example 31, 3-Cyclohexylmethyl-4-bromo-5-(2-imidazolin-2-ylamino)Benzimidazole] | 153 to 155 °C
